Source: patent US20070269494A1, “Compositions and methods for enhancing active agent absorption” (Nexus Pharma, Inc., priority 2006, published 2007)

Test system: Sprague-Dawley rats
Assay: Blood glucose depression by intracolonically administered bovine pancreatic insulin with absorption enhancer
Assay type: in vivo
Conditions: for Blood glucose as % of basal level: enhancer 0 mg/kg (insulin without enhancer), intracolonic, rats
Protocol: It is neutralized by 1 equivalent of sodium hydroxide. The pH is adjusted to 7-8 by 1N HCl and saturated sodium bicarbonate. Bovine pancreatic insulin (1.75 mL; Sigma, 10 mg/mL; in pH 8.2 HEPES buffer) is added and mixed by gentle swirling. The solution density is determined so that the required dose may be calculated.
The solution is then given to Sprague-Dawley rats (female, 250-300 g, n=3), intracolonically. Blood samples are taken from the tail vein and glucose levels measured using an OneTouch® UltraSmart® blood glucose meter.
As insulin reduces glucose levels in the blood, a depression in glucose levels indicates insulin reaching the blood efficaciously.

Compound | 50% depression at 60 min. (blood glucose from basal level) (enhancer dose 200 mg/Kg, insulin 7 mg/Kg, procedure of Example 12) | Blood glucose as % of basal level (0 min) [%] | Blood glucose as % of basal level (30 min) [%] | Blood glucose as % of basal level (60 min) [%] | Blood glucose as % of basal level (90 min) [%] | Blood glucose as % of basal level (120 min) [%] | Blood glucose as % of basal level (150 min) [%] | Blood glucose as % of basal level (180 min) [%] | Blood glucose as % of basal level (210 min) [%] | Blood glucose as % of basal level (240 min) [%]
COC(=O)c1ccc(NC(=O)CCC(=O)O)cc1O [Example 20, methyl 4-(3-carboxy-propionylamino)] | negative (a 50% reduction in glucose levels was not reached in 60 minutes) | – | – | – | – | – | – | – | – | –
bovine pancreatic insulin: Bovine pancreatic insulin (Sigma, 10 mg/mL; in pH 8.2 HEPES buffer), the active agent co-administered | – | 100 | 94 ± 4 | 102 ± 7 | 105 ± 3 | 107 ± 7 | 94 ± 7 | 111 ± 7 | 113 ± 4 | 100 ± 7
